Reference: paper PMC12073725, “Luminal Sweet Sensing and Enteric Nervous System Participate in Regulation of Intestinal Glucose Transporter, GLUT2” (Nutrients, 2025)

Target: T1, pig T1R2–T1R3 (Sus scrofa, UniProt I1ZBR6+Q0EF93)
T1 construct: gene TAS1R2; heterodimer; full-length, custom-synthesised genes in modified pcDNA3/TO; N-terminal rat sst3 tags, C-terminal FLAG or HSV tags; HEK293PEAKrapid cells stably expressing Galpha15
T1 sequence (I1ZBR6 20-835): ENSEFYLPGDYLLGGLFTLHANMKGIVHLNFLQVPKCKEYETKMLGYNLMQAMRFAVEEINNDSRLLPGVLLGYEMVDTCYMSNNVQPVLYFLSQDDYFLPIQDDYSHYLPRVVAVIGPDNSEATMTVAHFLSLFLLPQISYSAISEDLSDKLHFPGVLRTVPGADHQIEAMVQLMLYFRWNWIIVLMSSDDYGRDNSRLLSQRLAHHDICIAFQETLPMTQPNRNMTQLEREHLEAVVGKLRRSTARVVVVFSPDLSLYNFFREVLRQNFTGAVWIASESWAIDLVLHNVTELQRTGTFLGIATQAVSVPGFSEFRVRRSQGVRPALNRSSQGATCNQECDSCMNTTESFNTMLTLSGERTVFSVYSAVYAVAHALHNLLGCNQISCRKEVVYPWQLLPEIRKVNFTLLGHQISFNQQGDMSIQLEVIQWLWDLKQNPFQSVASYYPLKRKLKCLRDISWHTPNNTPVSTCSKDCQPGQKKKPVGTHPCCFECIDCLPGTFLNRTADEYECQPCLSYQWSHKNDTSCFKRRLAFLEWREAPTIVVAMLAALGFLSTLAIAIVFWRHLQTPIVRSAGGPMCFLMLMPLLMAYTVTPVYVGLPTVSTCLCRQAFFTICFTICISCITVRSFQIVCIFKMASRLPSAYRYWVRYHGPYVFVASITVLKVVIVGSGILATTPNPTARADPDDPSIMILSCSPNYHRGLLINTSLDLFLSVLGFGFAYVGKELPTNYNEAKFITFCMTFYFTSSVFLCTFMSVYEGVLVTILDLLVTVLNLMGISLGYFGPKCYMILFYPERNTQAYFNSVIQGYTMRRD
T1 sequence (Q0EF93 19-855): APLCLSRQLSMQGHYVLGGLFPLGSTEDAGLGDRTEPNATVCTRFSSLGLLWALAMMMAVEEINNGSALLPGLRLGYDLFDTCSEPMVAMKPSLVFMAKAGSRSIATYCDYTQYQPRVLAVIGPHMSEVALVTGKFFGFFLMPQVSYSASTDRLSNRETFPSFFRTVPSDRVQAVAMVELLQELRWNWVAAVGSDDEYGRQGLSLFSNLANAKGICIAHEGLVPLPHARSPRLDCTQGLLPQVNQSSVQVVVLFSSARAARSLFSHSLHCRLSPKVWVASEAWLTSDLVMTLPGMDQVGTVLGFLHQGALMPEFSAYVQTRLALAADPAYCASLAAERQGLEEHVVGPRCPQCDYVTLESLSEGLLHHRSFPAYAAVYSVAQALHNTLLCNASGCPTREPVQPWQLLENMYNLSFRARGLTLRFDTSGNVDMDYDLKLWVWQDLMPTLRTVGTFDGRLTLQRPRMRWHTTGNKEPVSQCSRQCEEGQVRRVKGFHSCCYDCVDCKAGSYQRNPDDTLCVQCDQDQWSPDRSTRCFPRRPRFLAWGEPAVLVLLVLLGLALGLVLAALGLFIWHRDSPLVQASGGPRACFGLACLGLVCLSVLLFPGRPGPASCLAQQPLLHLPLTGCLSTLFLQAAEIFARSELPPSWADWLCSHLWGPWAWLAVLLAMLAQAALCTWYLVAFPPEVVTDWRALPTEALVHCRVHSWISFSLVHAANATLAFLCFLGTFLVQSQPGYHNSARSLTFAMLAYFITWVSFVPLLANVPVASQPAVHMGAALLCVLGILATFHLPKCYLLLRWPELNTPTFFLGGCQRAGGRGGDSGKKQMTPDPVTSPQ
Assay: calcium mobilisation (Fluo-4), FlexStation3
Format: cell-based
Conditions: agonist; transfected HEK293PEAKrapid Galpha15 cells; mock-transfected control; curves in mg/mL

COc1cc(C=O)ccc1O [vanillin]
EC50: activation in response to stimulation with either each sweetener component of SMF (A)
